Patent publication US7132590B2, “Methods of making male-sterile plants by underexpressing allene oxide synthase” (The Arizona Board of Regents on Behalf of the University of …, priority 2001, dated 2006)
“Also recorded” adds a separate entry of the source.

Assays:
Arabidopsis aos mutant = assay type: in vivo, Arabidopsis thaliana; settings: for time after application at which aos mutant siliques started to elongate / time for aos mutant siliques to reach the wild-type silique size: after OPDA and MeJA spraying; for rescue of male sterile phenotype (silique elongation, fertility) of aos mutant: flower buds of 4 week old plants, twice a day for two days, 1% LA or 2 mM MeJA sprayed, 1 mM OPDA dipped, siliques monitored two weeks
Experimental: Application of linolenic acid (LA; Cayman Chemical, USA) and methyl jasmonate (MeJA; Sigma-Aldrich, USA) to recover male sterility of Arabidopsis aos mutant was done by spraying 1% of LA and 2 mM MeJA directly on Arabidopsis flower buds of 4 week old plants grown under long day condition. Oxo-phytodienoic acid (OPDA; Cayman Chemical, USA) was applied by dipping of floral buds in the 1 mM OPDA and 0.01% TritonX-100 (Sigma-Aldrich, USA) solution. These plants were sprayed twice a day for two days. The plants were monitored for silique production over the next two weeks.
The AOS gene is important in jasmonate biosynthesis because it catalyzes the most upstream step in the JA-specific biosynthetic pathway (FIG. 1).

[1] = test system: triple mutant (fad3-2/fad7-2/fad8); settings: mutant lacking hexadecatrienoic acid (16:3) and LA (18:3); McConn and Browse (1996); cited from earlier work
[2] = test system: male-sterile mutant (dad1); settings: Ishiguro et al. (2001); cited from earlier work

Row | Structure (SMILES) | time after application at which aos mutant siliques started to elongate (Arabidopsis aos mutant) | time for aos mutant siliques to reach the wild-type silique size (Arabidopsis aos mutant) | rescue of male sterile phenotype (silique elongation, fertility) of aos mutant (Arabidopsis aos mutant) | rescue of male sterility [1] | rescue of sterility phenotype [2]
1 | CC/C=C\CC1C(=O)CCC1CC(=O)OC (stereo not drawn) [MeJA, methyl jasmonate] | Two | in a week | rescued to wild-type; also recorded: can rescue the aos male sterile phenotype | – | –
2 | CC/C=C\C[C@@H]1C(=O)C=C[C@@H]1CCCCCCCC(=O)O [OPDA, Oxo-phytodienoic acid] | Two | in a week | rescued to wild-type | – | –
3 | CC/C=C\C[C@H]1C(=O)CC[C@@H]1CC(=O)O [jasmonic acid, Jasmonic acid] | – | – | restoration of essentially wild-type siliques and recovered fertility | could be rescued | could be rescued
